In US20240335453A1, “METALLO-ß-LACTAMASE INHIBITORS” (University of KwaZulu-Natal, priority 2021, published 2024):
≈ marks a conversion by molar mass, not a printed value. Where “and” joins values, the source holds several entries; their conditions need not be identical. Equal entries are not always repeated. Entries after “also recorded” stand apart in the source; their conditions may differ. Where two headings read alike, the source gives them in different places.

Legend:
E. coli NDM-4 = assay: MIC broth microdilution checkerboard; type: cell-based; conditions: Escherichia coli
Procedure: (§1) Briefly, two-fold dilutions of each meropenem/BP or meropenem/TG from 0.015 to 16 μg/mL and 1 to 64 μg/mL respectively were made in cation adjusted Mueller-Hinton Broth (CAMHB) in a 96-well microtitre plate using the checkerboard method (King et al). A 0.5 McFarland-standardized bacterial inoculum was added to make a total volume of 100 μl in each microtitre well. The initial inoculum density was determined by plating out MHA plates for MBC testing. The plates were then incubated for 18-22 h at 37° C. under aerobic conditions. The MIC was determined as the lowest concentration at which there was no visible growth. Control wells included the amount of solvent used in dissolving drug candidates.
(§2) To investigate the potential activity of BP1 and TG1 as MBLs inhibitors well characterized carbapenem-resistant bacteria expressing known class B carbapenemases were used. MICs using the broth micro-dilution method was conducted according to CLSI guidelines (Clinical and Laboratory Standards Institute. Performance Standards for Antimicrobial Susceptibility Testing: Twenty-Fourth Informational Supplement M100-S24. CLSI, Wayne, PA, USA, 2014) using cation adjusted Mueller-Hinton broth for meropenem, alone (See table 4) and in combination with the metal chelating agents BP1 and TG1 at variable concentrations (two-fold dilutions from 1 to 64 μg/mL). Escherichia coli ATCC 25922 was used as the control.

K. pneumoniae IMP-8 [1] = assay: MIC broth microdilution checkerboard; type: cell-based; conditions: Klebsiella pneumoniae
Procedure: as §1, §2

P. rettgeri NDM-1 = assay: MIC broth microdilution checkerboard; type: cell-based; conditions: Providencia rettgeri
Procedure: as §1, §2

K. pneumonia IMP-1 = assay: MIC broth microdilution checkerboard; type: cell-based; conditions: Klebsiella pneumoniae
Procedure: as §1, §2

E. cloacae IMP-8 = assay: MIC broth microdilution checkerboard; type: cell-based; conditions: Enterobacter cloacae
Procedure: as §1, §2

E. cloacae VIM-1 = assay: MIC broth microdilution checkerboard; type: cell-based; conditions: Enterobacter cloacae
Procedure: as §1, §2

E. coli IMP-1 = assay: MIC broth microdilution checkerboard; type: cell-based; conditions: Escherichia coli
Procedure: as §1, §2

K. pneumonia VIM-1 = assay: MIC broth microdilution checkerboard; type: cell-based; conditions: Klebsiella pneumoniae
Procedure: as §1, §2

E. coli NDM-1 [2] = assay: Time-kill assay; type: cell-based; conditions: BP1 in combination with meropenem
Procedure: (§3) Time-kill studies were performed according to previously published methods, including those described by CLSI document M26-A. E. coli NDM-1, K. pneumoniae IMP-8 and K. pneumoniae NDM were the strains selected for this assay. Briefly, freshly prepared colonies were re-suspended in 10 mL CAMHB and incubated in a shaking incubator (37° C., 180 rpm) for 1 to 2 h. Cultures were then diluted to a 0.5 McFarland standard (approximately 10^8 CFU/mL) and further diluted 1:20 in CAMHB so that the starting inoculum was approximately 5×10^6 CFU/mL. […] A growth control with no antibiotic was also included. The starting inoculum was determined from the growth control tube immediately after dilution and was recorded as the count at time zero. After addition of antibiotics, the starting inoculum was approximately 1×10^6 to 5×10^6 CFU/mL. Tubes were incubated in a shaking incubator at 37° C., 180 rpm, and viability counts were performed at 1, 2, 4, 6, 8 and 24 h by removing 100 μL of the culture, diluting as appropriate, and plating 100 μL on MHA. MHA plates were incubated at 37° C. for at least 18 h. Colonies were counted, and the results were recorded as the number of CFU/mL. A ≥3−log10 decrease in the number of CFU/mL was considered bactericidal.

K. pneumoniae IMP-8 [3] = assay: Time-kill assay; type: cell-based; conditions: BP1 in combination with meropenem
Procedure: as §3

HepG2 cells [4] = assay: Lactate dehydrogenase (LDH) cytotoxicity assay; type: cell-based, Human; conditions: for Induction of necrosis / Extracellular lactate dehydrogenase (LDH) level: HepG2 cells; for Induction of necrosis: from LDH; for Extracellular lactate dehydrogenase (LDH) level: relative to control
Procedure: Human hepatoma (HepG2) cells were cultured in Dulbecco minimum essential medium (Lonza Biowhittaker, Switzerland) supplemented with 1% pen/strep/fungizone, 1% L-glutamine and 10% fetal bovine serum. The cells were maintained under the atmosphere of 5% CO2 at 37° C. Once 80% confluence had been reached, cells were enzymatically detached (trypsin) and utilized for the cell viability assay. The lactate dehydrogenase (LDH) cytotoxicity detection kit (Roche, Mannheim, Germany) was used to measure the cell damage and cytotoxicity in MPR-SMN-05-treated HepG2 cells. Extracellular LDH activity was quantified by incubating […] substrate solution (diaphorase/NAD+; INT/sodium lactate) in a 96 well microtiter plate at room temperature for 30 min. The assay was performed in triplicate. Optical density (OD) was measured following incubation at 500 nm using a spectrophotometric plate reader (Bio-Tek uQuant, Winooski, VT).

E. coli NDM-1 [5] = assay: MIC broth microdilution checkerboard; type: cell-based, Escherichia coli
Procedure: as §1, §2

HepG2 cells [6] = assay: Cell viability (MTT) assay; type: cell-based, Human; conditions: for IC50: Homo sapiens, HepG2, 24 h; for HepG2 cell viability, effect in words: relative to control
Procedure: Human hepatoma (HepG2) cells were cultured in Dulbecco minimum essential medium (Lonza Biowhittaker, Switzerland) supplemented with 1% pen/strep/fungizone, 1% L-glutamine and 10% fetal bovine serum. The cells were maintained under the atmosphere of 5% CO2 at 37° C. Once 80% confluence had been reached, cells were enzymatically detached (trypsin) and utilized for the cell viability assay. The effect of MPR-SMN-05 on cell viability was determined using the 3-(4,5-Dimethyl-2-thiazolyl)-2,5-diphenyl-2H-tetrazolium bromide (MTT) assay according to previously reported studies by Mosmann (Mosmann T. Rapid colorimetric assay for cellular growth and survival: application to proliferation and cytotoxicity assays. Journal of immunological methods 1983; 65: 55-63). Approximately 15, 000 cells were seeded in a 96-well microtiter plate and allowed to adhere overnight. The cells were subsequently exposed to a range of 0 to 250 mg/L MPR-SMN-05 (experiments were done in triplicate). After incubation with MPR-SMN-05 for 24 h, cells were washed twice with 0.1 M phosphate buffer saline (PBS) and incubated with 20 μl MTT salt solution (5 mg/ml in 0.1 M PBS) and 100 μl complete culture medium (CCM) (37° C., 4 h). The MTT salt solution was then discarded and […] of DMSO was added to each well and incubated (37° C., 1 h) to dissolve the formazan crystals. The optical density was measured at 570/690 nm employing a spectrophotometer (Bio-Tek uQuant, Winooski, VT). The results were expressed as percentage cell viability vs. log concentration of MPR-SMN-05, from which the half maximal inhibitory concentration (IC50) was determined. Control treatments were represented by an equal amount of DMSO solvent in CCM without the test compound.

[7] = tested on: Klebsiella pneumoniae 449; assay: MIC broth microdilution checkerboard; type: cell-based; conditions: read-out: MIC, Meropenem administered alone
Procedure: as §1

CCN1CCN(CC)CCN(C(CC(=O)NC2C(=O)N3C(C(=O)[O-])=C(C[n+]4ccccc4)CSC23)C(=O)OC)CC1 (stereo not drawn) [BP1]
MIC (E. coli NDM-4; NDM4, E. coli NDM-4, read-out: MIC BP1 alone): > 64 µg/mL and > 84 µM
MIC (K. pneumoniae IMP-8 [1]; IMP8, K. pneumoniae IMP-8, read-out: MIC BP1 alone): > 64 µg/mL and > 84 µM
MIC (P. rettgeri NDM-1; NDM1, P. rettgeri NDM-1, read-out: MIC BP1 alone): > 64 µg/mL and > 84 µM
MIC (K. pneumonia IMP-1; IMP1, K. pneumonia IMP-1, read-out: MIC BP1 alone): > 64 µg/mL and > 84 µM
MIC (E. cloacae IMP-8; IMP8, E. cloacae IMP-8, read-out: MIC BP1 alone): > 64 µg/mL and > 84 µM
MIC (E. cloacae VIM-1; VIM1, E. cloacae VIM-1, read-out: MIC BP1 alone): > 64 µg/mL and > 84 µM
MIC (E. coli IMP-1; IMP1, read-out: MIC BP1 alone): > 64 µg/mL and > 84 µM
MIC (K. pneumonia VIM-1; VIM1, K. pneumonia VIM-1, read-out: MIC BP1 alone): > 64 µg/mL and > 84 µM
Time-kill kinetics outcome (E. coli NDM-1 [2]): bactericidal activity
Time-kill kinetics outcome (K. pneumoniae IMP-8 [3]): bactericidal activity
Induction of necrosis (HepG2 cells [4]): does not induce necrosis
Extracellular lactate dehydrogenase (LDH) level (HepG2 cells [4]): significantly reduced at all concentrations
Cytotoxicity, overall statement (HepG2 cells [4]; in vitro, cell lines): safe at the active concentrations
MIC (E. coli NDM-1 [5]; Escherichia coli, NDM1, E. coli NDM-1, read-out: MIC BP1 alone): > 64 µg/mL and > 84 µM
IC50 (HepG2 cells [6]): 60 µg/mL (≈ 102 µM)
HepG2 cell viability, effect in words (HepG2 cells [6]): dose-dependent decrease in cell viability was observed with a significant decrease occurring at 100 and 200 μg/ml

C/C=C(/C(=O)N[C@@H]1C(=O)N2C(C(=O)O)=C(CSC(=O)c3ccco3)CS[C@H]12)c1csc(NC(=O)CC(C)N2CCN(CC)CCN(CC)CC2)n1 (stereo partly drawn) [BP6]
Induction of necrosis (HepG2 cells [4]): does not induce necrosis
Extracellular lactate dehydrogenase (LDH) level (HepG2 cells [4]): significantly reduced at all concentrations
IC50 (HepG2 cells [6]): 51.8 µg/mL (≈ 68.2 µM)
HepG2 cell viability, effect in words (HepG2 cells [6]): dose dependent increase in the cell viability; also recorded: only significantly altered at 200 μg/ml

CCC1=C(C(=O)O)N2C(=O)[C@@H](NC(=O)/C(=N/C)c3csc(NC(=O)CC(C)N4CCN(CC)CCN(CC)CC4)n3)[C@H]2SC1 (stereo partly drawn) [BP10]
Induction of necrosis (HepG2 cells [4]): does not induce necrosis
Extracellular lactate dehydrogenase (LDH) level (HepG2 cells [4]): remained unaffected at 1 μg/ml; also recorded: significantly reduced at 8-200 μg/ml
IC50 (HepG2 cells [6]): 62 µg/mL (≈ 95.5 µM)
HepG2 cell viability, effect in words (HepG2 cells [6]): not significantly altered at 50-100 μg/ml; also recorded: significantly reduced at 200 μg/ml

CCN1CCN(CC)CCN(C(CC(=O)Nc2nc(/C(=C/CC(=O)O)C(=O)N[C@@H]3C(=O)N4C(C(=O)O)=CCS[C@H]34)cs2)C(=O)OC)CC1 (stereo partly drawn) [BP14]
Induction of necrosis (HepG2 cells [4]): does not induce necrosis
Extracellular lactate dehydrogenase (LDH) level (HepG2 cells [4]): significantly reduced at 8 μg/ml; also recorded: remained unaffected at 1 μg/ml and 10-200 μg/ml
IC50 (HepG2 cells [6]): 42.3 µg/mL (≈ 59.8 µM)
HepG2 cell viability, effect in words (HepG2 cells [6]): reduced cell viability at 1 μg/ml and 10-200 μg/ml; also recorded: proliferation occurred at 8 μg/ml

C[C@@H](O)[C@H]1C(=O)N2C(C(=O)O)=C(S[C@@H]3CN[C@H](C(=O)N(C)C)C3)[C@H](C)[C@H]12 [Meropenem]
MIC (E. coli NDM-4; NDM4, E. coli NDM-4, read-out: MIC MEM alone): > 16 µg/mL and > 42 µM
MIC (K. pneumoniae IMP-8 [1]; IMP8, K. pneumoniae IMP-8, read-out: MIC MEM alone): 8 µg/mL and 21 µM
MIC (P. rettgeri NDM-1; NDM1, P. rettgeri NDM-1, read-out: MIC MEM alone): > 16 µg/mL and > 42 µM
MIC (K. pneumonia IMP-1; IMP1, K. pneumonia IMP-1, read-out: MIC MEM alone): > 16 µg/mL and > 42 µM
MIC (E. cloacae IMP-8; IMP8, E. cloacae IMP-8, read-out: MIC MEM alone): 8 µg/mL and 21 µM
MIC (E. cloacae VIM-1; VIM1, E. cloacae VIM-1, read-out: MIC MEM alone): 8 µg/mL and 21 µM
MIC (E. coli IMP-1; IMP1, read-out: MIC MEM alone): 16 µg/mL and 42 µM
MIC (K. pneumonia VIM-1; VIM1, K. pneumonia VIM-1, read-out: MIC MEM alone): > 16 µg/mL and > 42 µM
MIC (E. coli NDM-1 [5]; Escherichia coli, NDM1, E. coli NDM-1, read-out: MIC MEM alone): > 16 µg/mL and > 42 µM
MIC (E. coli NDM-1 [5]; NDM1, Escherichia coli NDM-1 (Table 6 footnote), read-out: MIC, Meropenem administered alone): > 32 µg/mL
MIC [7]: > 32 µg/mL

O=C(O)CN1CCN(CC(=O)O)CCN(CC(=O)O)CC1 [TG1, 1,4,7-triazacyclononane-1,4,7-triacetic acid]
MIC (E. coli NDM-4; NDM4, read-out: MIC TG1 alone): > 64 µg/mL and > 131 µM
MIC (K. pneumoniae IMP-8 [1]; IMP8, read-out: MIC TG1 alone): > 64 µg/mL and > 131 µM
MIC (P. rettgeri NDM-1; NDM1, read-out: MIC TG1 alone): > 64 µg/mL and > 131 µM
MIC (K. pneumonia IMP-1; IMP1, read-out: MIC TG1 alone): > 64 µg/mL and > 131 µM
MIC (E. cloacae IMP-8; IMP8, read-out: MIC TG1 alone): > 64 µg/mL and > 131 µM
MIC (E. cloacae VIM-1; VIM1, read-out: MIC TG1 alone): > 64 µg/mL and > 131 µM
MIC (E. coli IMP-1; IMP1, read-out: MIC TG1 alone): > 64 µg/mL and > 131 µM
MIC (K. pneumonia VIM-1; VIM1, read-out: MIC TG1 alone): > 64 µg/mL and > 131 µM
MIC (E. coli NDM-1 [5]; Escherichia coli, NDM1, read-out: MIC TG1 alone): > 64 µg/mL and > 131 µM
